For one test, the target named is PIM-1 (Homo sapiens, UniProt P11309). Put plainly: Radiometric HotSpot kinase assay, PIM-1. It counts as biochemical. The settings on record: 1 μM compound, 10 μM ATP. On the procedure: (§1) Kinase Profiling: The inhibitory activity of the PI3K inhibitor compounds of the invention against 250 protein kinases was determined via the radiometric HotSpot Kinase Profiling (Reaction Biology Corporation, Malvern, Pa.). Compounds were profiled at a final concentration of 1 μM compound against recombinant protein kinases in the presence of 10 μM ATP and data were expressed as percent inhibition. IC50 and/or percent inhibition at 1 μM compound values were determined for select compounds against a subset of kinases (MELK, MNK1, MNK2, mTOR, PIM-1. TRKC, and PDGFRα(D842V)).
Chain of PIM-1 (P11309 whole entry): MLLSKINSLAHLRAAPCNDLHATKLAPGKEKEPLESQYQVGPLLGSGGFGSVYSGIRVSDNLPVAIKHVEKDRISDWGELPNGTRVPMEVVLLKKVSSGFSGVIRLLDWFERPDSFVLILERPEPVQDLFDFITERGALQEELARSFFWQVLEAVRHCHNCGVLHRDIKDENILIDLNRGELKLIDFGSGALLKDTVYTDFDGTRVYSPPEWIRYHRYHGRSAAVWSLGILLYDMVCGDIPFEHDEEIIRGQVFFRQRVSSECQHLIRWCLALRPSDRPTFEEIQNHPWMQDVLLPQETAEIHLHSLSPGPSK
(§2) Compounds of the invention were assayed against the select kinases using the KinaseGLO assay (MELK) or the radiometric assay (PIM, TRKC, PDGFRα(D842V), MNK1 and mTOR). IC50 values were determined using 8-10 point half-log dose dilutions and calculated via nonlinear regression analysis using Graphpad Prism data analysis software.

The target of the next test is TRKC (Homo sapiens, UniProt Q16288). Kind of test: Radiometric HotSpot kinase assay, TRKC. It counts as biochemical. The settings on record: 1 μM compound, 10 μM ATP. The procedure: as §1, §2
Chain of TRKC (Q16288 32-839): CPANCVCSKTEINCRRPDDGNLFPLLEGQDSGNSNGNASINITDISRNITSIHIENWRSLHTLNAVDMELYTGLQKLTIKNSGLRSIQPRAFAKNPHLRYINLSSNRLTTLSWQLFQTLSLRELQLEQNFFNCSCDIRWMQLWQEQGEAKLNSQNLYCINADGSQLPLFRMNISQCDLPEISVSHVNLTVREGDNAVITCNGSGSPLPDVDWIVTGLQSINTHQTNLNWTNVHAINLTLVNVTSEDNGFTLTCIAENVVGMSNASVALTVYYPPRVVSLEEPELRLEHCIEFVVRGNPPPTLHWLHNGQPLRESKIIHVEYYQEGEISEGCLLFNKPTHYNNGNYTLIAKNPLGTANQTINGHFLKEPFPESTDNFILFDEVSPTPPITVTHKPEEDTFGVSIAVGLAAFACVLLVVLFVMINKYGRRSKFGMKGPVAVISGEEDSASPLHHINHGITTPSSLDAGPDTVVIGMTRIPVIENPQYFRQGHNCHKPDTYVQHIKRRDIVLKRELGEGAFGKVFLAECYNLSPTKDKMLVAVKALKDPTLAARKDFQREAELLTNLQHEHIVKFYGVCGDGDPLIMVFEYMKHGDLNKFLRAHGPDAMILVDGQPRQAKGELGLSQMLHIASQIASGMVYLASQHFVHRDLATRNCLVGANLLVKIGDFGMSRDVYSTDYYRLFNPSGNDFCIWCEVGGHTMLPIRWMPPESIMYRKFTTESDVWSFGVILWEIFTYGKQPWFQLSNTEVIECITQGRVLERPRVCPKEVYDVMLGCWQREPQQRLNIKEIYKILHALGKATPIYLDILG
Another test addresses T1, MELK (Homo sapiens, UniProt Q14680).
T1 construct: purchased Invitrogen or Millipore
Kind of test: MELK kinase assay (KinaseGLO). It is filed as biochemical. On the procedure:
Compound Preparation: KinaseGLO assay: 30× stocks of inhibitors were prepared in DMSO. A 10 mM master stock was prepared and all other stocks were generated by serial dilution of this master stock in DMSO. The final concentration of DMSO in the kinase reaction was 3.3% (v/v).
MELK kinase assay: The ability of compounds to inhibit MELK was also determined using the KinaseGLO assay. Briefly, MELK enzymes was thawed and diluted to a final concentration of 2.64 ng/μL in reaction buffer (50 mM HEPES, pH7.5, 100 mM NaCl, 2.0 mM DTT, 3.0 mM MgCl2, 1.0 mM EGTA, 10 μM ATP). 19 μl of this kinase reaction mixture was aliquoted into test wells (50 ng MELK/well) in a Microfluor2 white 96-well plate (Thermo Scientific). As a preincubation step, 1 μl of 30× compound dilutions was added to the appropriate test wells to generate a ten point dose-response ranging from 0.0 μM-10 μM inhibitor, and incubated for 15 minutes at 4° C. The reaction was started by addition of 10 μL of 150 μM ZIPtide peptide substrate resuspended in reaction buffer (50 μM final concentration of ZIPtide). Reactions were incubated at room temperature for 2 hours prior to addition of 30 μL of KinaseGLO reagent and development as described. Maximal luminescence (no MELK activity/maximal MELK inhibition) was determined from reaction buffer plus peptide substrate only controls. The minimal signal (maximal MELK activity) was determined by the 0.0 μM compound (DMSO only) control. IC50 values were calculated via non-linear regression using GraphPad Prism data analysis software. […]
as §2
For orientation: In Kinase-Glo more light means more ATP remaining.

Another test deals with U-87 MG cells. Kind of test: CellTiter-GLO cell proliferation assay, U-87 MG. It counts as cell-based. Particulars: Homo sapiens, preliminary experiments, no unit printed with the values (paragraph speaks of nM), read-out: mean concentration for 50% inhibition of U-87 MG cell proliferation. The procedure: Compound Preparation: Cell-based assays: 1000× stocks of inhibitors were prepared in DMSO. A 10 mM master stock was prepared and all other stocks were generated by serial dilution of the master stock in DMSO. The final concentration of DMSO in cell-based assays was 0.1% (v/v).
CellTiter-GLO® Cell Proliferation Assay: CellTiter-GLO® (Promega) quantifies cell number as a measure of the ATP in a cell culture. 1,000-10,000 human tumor cells (of multiple histotypes) were plated in 100 μL of growth medium (10% (v/v) FBS in DMEM) in white, collagen coated 96-well plates (Biocoat) and allowed to adhere overnight at 37° C. in a 5% CO2 incubator. All test inhibitors were prepared in DMSO. For EC50 determinations, 1000× inhibitor stocks were prepared from a 10 mM master stock by serial dilution in DMSO and subsequently diluted in fresh growth medium to the desired inhibitor concentration. The growth medium was removed by aspiration and replaced with fresh medium containing inhibitors. […]
After 72 hours, the plates were removed from the incubator and equilibrated to room temperature for 30 minutes. […] Plates were incubated in the dark for 10 minutes at room temperature before reading luminescence on a SpectraMax M5 luminometer. Results are expressed as % inhibition relative to control cells (DMSO only). EC50 values were calculated via non-linear regression using GraphPad Prism data analysis software.
(In general: ATP-based viability assays read luminescence as a measure of living cells.)

For another test, the target named is PDGFRα(D842V) (Homo sapiens, UniProt P16234, D842V). Put plainly: Radiometric HotSpot kinase assay, PDGFRα(D842V). It is filed as biochemical. The procedure:
as §1, §2

Some results are limits rather than exact numbers.

These results are taken from patent US20110212053A1, “PHOSPHATIDYLINOSITOL 3 KINASE INHIBITORS” (priority 2008, published 2011).

T1 sequence (Q14680 whole entry): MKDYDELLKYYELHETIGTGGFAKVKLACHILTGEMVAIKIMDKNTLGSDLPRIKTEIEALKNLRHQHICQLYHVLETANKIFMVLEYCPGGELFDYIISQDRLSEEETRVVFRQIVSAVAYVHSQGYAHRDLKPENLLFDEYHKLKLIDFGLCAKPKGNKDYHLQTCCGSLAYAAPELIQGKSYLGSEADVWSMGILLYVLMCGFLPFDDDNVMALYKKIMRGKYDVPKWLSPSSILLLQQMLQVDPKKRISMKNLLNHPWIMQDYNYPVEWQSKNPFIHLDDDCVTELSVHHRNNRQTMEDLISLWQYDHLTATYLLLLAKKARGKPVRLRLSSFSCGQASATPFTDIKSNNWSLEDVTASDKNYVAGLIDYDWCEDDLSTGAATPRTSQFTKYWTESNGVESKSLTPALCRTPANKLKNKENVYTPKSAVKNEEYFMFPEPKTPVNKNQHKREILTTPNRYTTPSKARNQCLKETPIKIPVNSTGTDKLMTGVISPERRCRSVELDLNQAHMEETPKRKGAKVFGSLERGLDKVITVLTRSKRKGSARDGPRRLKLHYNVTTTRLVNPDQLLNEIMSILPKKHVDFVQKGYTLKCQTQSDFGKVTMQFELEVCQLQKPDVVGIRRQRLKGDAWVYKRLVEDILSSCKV
Chain of PDGFRα(D842V) (P16234 24-1089 D842V): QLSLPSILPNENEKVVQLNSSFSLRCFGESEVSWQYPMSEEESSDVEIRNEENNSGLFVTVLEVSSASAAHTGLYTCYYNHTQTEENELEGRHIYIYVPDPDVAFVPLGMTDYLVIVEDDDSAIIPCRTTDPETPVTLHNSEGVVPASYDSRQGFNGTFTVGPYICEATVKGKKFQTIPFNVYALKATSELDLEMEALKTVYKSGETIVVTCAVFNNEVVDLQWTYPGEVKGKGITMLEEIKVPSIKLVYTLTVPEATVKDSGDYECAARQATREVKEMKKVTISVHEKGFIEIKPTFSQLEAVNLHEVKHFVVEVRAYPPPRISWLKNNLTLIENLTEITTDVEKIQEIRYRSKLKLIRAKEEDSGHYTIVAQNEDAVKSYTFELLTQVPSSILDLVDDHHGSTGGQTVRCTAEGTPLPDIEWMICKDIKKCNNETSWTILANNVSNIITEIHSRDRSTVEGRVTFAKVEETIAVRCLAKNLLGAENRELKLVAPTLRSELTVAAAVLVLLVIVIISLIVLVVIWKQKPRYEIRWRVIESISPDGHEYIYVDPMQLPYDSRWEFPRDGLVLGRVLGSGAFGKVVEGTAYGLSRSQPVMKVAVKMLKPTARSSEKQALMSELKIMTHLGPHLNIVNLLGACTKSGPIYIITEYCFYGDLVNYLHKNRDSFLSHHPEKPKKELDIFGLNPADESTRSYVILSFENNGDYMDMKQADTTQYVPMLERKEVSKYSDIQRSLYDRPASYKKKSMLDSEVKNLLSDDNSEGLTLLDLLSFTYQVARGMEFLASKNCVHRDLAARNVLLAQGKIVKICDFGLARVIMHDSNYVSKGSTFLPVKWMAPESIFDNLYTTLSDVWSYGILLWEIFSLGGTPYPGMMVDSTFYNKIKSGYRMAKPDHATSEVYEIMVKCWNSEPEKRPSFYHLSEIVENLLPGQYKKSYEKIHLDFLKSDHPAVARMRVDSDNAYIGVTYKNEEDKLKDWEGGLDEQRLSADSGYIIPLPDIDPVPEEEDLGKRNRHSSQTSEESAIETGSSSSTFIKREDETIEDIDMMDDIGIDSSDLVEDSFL

As for `CC(C)(C#N)c1ccc(-c2n[nH]c3cnc4ccc(-c5cccnc5)cc4c23)cc1` [Compound 1107, 2-methyl-2-(4-(8-(pyridin-3-yl)-3H-pyrazolo[3,4-c]quinolin-1-yl)phenyl)propanenitrile], the inhibition (as a rule, how much of the control response was suppressed) at 1 µM was 85 to 95% on PIM-1 and more than 97% against TRKC. Also, the IC50 against MELK is less than 0.012 µM; in the test on U-87 MG cells, 470 nM.

As for `CC(C)(C#N)c1ccc(-c2n[nH]c3cnc4ccc(-c5cnc6ccccc6c5)cc4c23)cc1` [Compound 1078, 2-methyl-2-(4-(8-(quinolin-3-yl)-3H-pyrazolo[3,4-c]quinolin-1-yl)phenyl)propanenitrile], the IC50 is more than 0.03 µM at MELK and 295 nM in the test on U-87 MG cells.

Consider `CC(C)(C#N)c1ccc(-c2n[nH]c3cnc4ccc(-c5ccc6ncccc6c5)cc4c23)cc1` [Compound 1110, 2-methyl-2-(4-(8-(quinolin-6-yl)-3H-pyrazolo[3,4-c]quinolin-1-yl)phenyl)propanenitrile], for which the IC50 was more than 0.1 µM at PDGFRα(D842V) and more than 0.03 µM against MELK. The inhibition at 1 µM was 60 to 85% against PIM-1 and more than 80% against TRKC.
